From PubChem BioAssay AID1850 (Southern Research Specialized Biocontainment Screening …, 2009)

Tested on: Salmonella Typhi PhoP-promoter GFP reporter, fluorescence, 4 h
Test: Inhibition of PhoP regulon, Salmonella typhi GFP reporter cells, confirmation, 4 h (AID 1850)

SMILES	IC50
CN(C)CCCNc1cc(C(C)(C)C)nc2c(-c3ccccc3)cnn12	31.5 µM
OC1CCCN(Cc2ccc3ccc4cccc5ccc2c3c45)C1 (configuration not stated)	79.3 µM
O=C(Nc1cccc(C2=NCCN2)c1)Nc1cccc(C2=NCCN2)c1	71.9 µM
OCCNc1nc(Nc2ccc(Br)cc2)nc2ccccc12	6.86 µM
COc1c(N2CCN[C@H](C)C2)c(F)cc2c(=O)c(C(=O)O)cn(C3CC3)c12	< 0.23 µM
O=C(N/N=C\C=C\c1ccc([N+](=O)[O-])o1)c1cccs1	18.7 µM
O=C(NNC(=S)NC(=O)c1ccccc1)c1ccc(O)cc1	60.9 µM
O=C1OCC(CO)(CO)N=C1NNc1ccc(Cl)c(Cl)c1	47.9 µM
CCCCCCCCCCCCCCCC[N+](C)(C)CC	18.6 µM
CCOC(=O)c1ccccc1-n1c(C)cc(C2N=C(N)Nc3nc4ccccc4n32)c1C (configuration not stated)	36.6 µM
Clc1ccc2[nH]c3c(c2c1)CCc1cn[nH]c1-3	79.6 µM
CN(C)CCCn1c(SCC(=O)N2c3ccccc3Sc3ccccc32)nc2ccccc2c1=O	62.8 µM
CC(=O)OC1=C(O)C(=O)c2ccccc2C1=O	142 µM
Cc1[nH]c2ccc(OC(F)(F)F)cc2c1CCNCc1ccc(Cl)cc1	22.1 µM
NC1CCN(c2c(F)cc3c(=O)c(C(=O)O)cn(C4CC4)c3c2Cl)C1 (configuration not stated)	< 0.23 µM
COc1cc(C)c(Cc2cnc(N)nc2N)cc1OC	2.88 µM
OCCNc1nc(Nc2ccccc2)nc2ccccc12	10.2 µM
OC1(c2ccc(Cl)cc2)CCN(Cc2c[nH]c3ccccc23)CC1	69.5 µM
Cc1ccc2nc(N(CCCN(C)C)C(=O)c3sc4ccccc4c3Cl)sc2c1	35.5 µM

SMILES	IC50
CN1C(=O)NC(c2cccc(O)c2)C(C(=O)c2cccs2)C1(O)C(F)(F)F (configuration not stated)	40.3 µM
CCOC(=O)C1=C(C(C)=O)C(c2cccnc2)C(C#N)=C(N)O1 (configuration not stated)	91.5 µM
OC(CNCCc1ccc(Cl)cc1Cl)COc1ccccc1 (configuration not stated)	71 µM
Cc1c(Cl)cccc1Nc1nc(NCCO)c2ccccc2n1	10.8 µM
Fc1ccc(CCNCc2ccc(Cl)c(Cl)c2)cc1	36.9 µM
Cc1ccc(-c2[nH]ncc2/C=N/n2c(C)nc3ccccc3c2=O)cc1	149 µM
O=C(NC(=S)NNC(=O)c1ccco1)c1ccc(Br)cc1	88.4 µM
CCCCc1ccc(NC2=NCCCS2)cc1	140 µM
Cc1cc(C)n(/N=C/c2cc(Cl)cc(Cl)c2O)c(=O)c1	137 µM
O=C(C[n+]1cc(-c2ccc(Cl)cc2)n2c1CCC2)N1c2ccccc2Sc2ccccc21	81.5 µM
O=[N+]([O-])c1cc(F)c2cccnc2c1O	6.57 µM
Cc1ccccc1C(=O)N/N=C/c1ccc([N+](=O)[O-])s1	35.5 µM
Cc1c(CCOC(=O)C2C3CC4CC(C3)CC2C4)sc[n+]1CC(=O)c1ccc(Br)cc1 (configuration not stated)	34.8 µM
O=C(/C=C/c1cccs1)NC(=S)NNC(=O)c1ccccc1O	35.2 µM
Oc1ccc(C[C@@H]2CNCCN2CCC23CC4CC(CC(C4)C2)C3)cc1	71.5 µM
O=C(Cc1ccc([N+](=O)[O-])cc1)N/N=C/c1ccc([N+](=O)[O-])o1	19.9 µM
C/C(O)=C\c1nc2ccccc2oc1=O	44.4 µM
Cc1ccc(C(OCC(O)CNCc2ccc(F)cc2)c2ccccc2)cc1 (configuration not stated)	48.4 µM
O=C(Oc1ccccc1)c1cc2ccccc2o1	38.1 µM

SMILES	IC50
Cc1ccc(-c2csc(NC(=O)C[n+]3cc(-c4ccccc4)n4c3CCC4)n2)cc1	20.7 µM
OC(CN1CCCCC1)Cn1c2ccccc2c2cc(Br)ccc21 (configuration not stated)	69.7 µM
CN(C)CCCNc1c2ccccc2nc2ccccc12	34.8 µM
OCCNCc1cc(Br)ccc1OCc1ccc(Cl)cc1	86.8 µM
Oc1[nH]c2ccccc2c1N=NC(=S)N1CCOCC1	35.7 µM
Cc1nc2ccccn2c1C(=O)N/N=C/c1ccc([N+](=O)[O-])o1	44.5 µM
O=c1c2c([nH]c3ccccc13)CCCCC2	43.6 µM
c1cc2c(cc1C1CCCCC1)c1c3n2CCCNC3CCC1 (configuration not stated)	31.2 µM
COc1ccc(NC2=NC3(CCCCC3)N=C(N)N2)cc1	74 µM
C=CC1=C(C(=O)O)N2C(=O)[C@@H](NC(=O)/C(=N/OCC(=O)O)c3csc(N)n3)[C@H]2SC1	17.3 µM
CCCCCCCNC(=O)C1(CC2CC(c3cccc(Br)c3)=NO2)CCNCC1 (configuration not stated)	53.7 µM
O=C(N/N=C\c1cccc([N+](=O)[O-])c1O)C1COc2ccccc2O1 (configuration not stated)	27.4 µM
O=C(/C=C/c1ccccc1)c1cc(Br)ccc(=O)c1O	24.5 µM
CC(Nc1nc(N2CCCCC2)nc2ccccc12)c1ccccc1 (configuration not stated)	39.2 µM
Oc1c(CN2CCCCC2)cc(Br)c2cccnc12	17.8 µM
COc1cc(CNCCO)cc(Cl)c1OCc1ccc(Cl)cc1Cl	38 µM
CN1CCN(c2cc3c(cc2F)c(=O)c(C(=O)O)cn3CCF)CC1	0.31 µM
OCCCCNCc1ccc(OCc2ccc(Cl)cc2Cl)cc1	77.3 µM
Oc1ccc(COCc2ccccc2)c2cccnc12	37.1 µM
